In patent publication US11332716B2, “Methods and compositions for producing pancreatic beta cells” (The Regents of the University of California, priority 2015, dated 2022):

Legend:
[1] = system: MEL1 INS GFP/W hESC spheres; assay: hESC suspension differentiation, qPCR of NGN3 and NKX2.2 at day 8; format: cell-based, human; conditions: compared to RCN condition / during RCN or R treatment
Protocol: FIGS. 16A-16D. Published protocols result in precocious endocrine differentiation by NEUROG3 activation. FIGS. 16A-C: Analysis of key pancreatic progenitor markers in clusters differentiated as outlined in FIG. 15A. R=Retinoic acid, C=Cyclopamine, N=Noggin, E=Epidermal growth factor, K=Keratinocyte growth factor, T=TBP, and A=ALK inhibitor. Data shown are representative of two independent experiments. FIG. 16A: PDX1, INS, GCG, NEUROG3, and NKX6.1 protein expression was assessed by whole mount staining of differentiated clusters at indicated time points. Note precocious expression of the endocrine marker NEUROG3 in the absence of NKX6.1 protein at days 6-9. FIGS. 16B and 16C: Flow cytometric quantification of PDX1^+ (orange gate), PDX1^+/NKX6.1^+ (blue gate), INS^+/NKX6.1^+ (green gate), and INS^+/NKX6.1^− (red gate) cells at indicated time points. […]
Total RNA was isolated with TRIZOL (Sigma) or micro/mini RNAeasy kit (Qiagen) and reverse transcribed using the iScript cDNA Kit (Bio-Rad) according to manufacturer's instructions. qPCR analysis was performed on an ABI 7900 HT Fast Real-Time PCR System (Applied Biosystems) and CFX Connect Real Time System (Biorad) using standard protocols. […] P-values were calculated using a two-tailed student's t-test. […]

[2] = system: pancreatic endodermal progenitor cells (cPE cells); assay: Maturation of cPE cells into C-peptide positive cells, chemical screen; conditions: added individually to basal pancreatic differentiation media
[3] = system: pancreatic endodermal progenitor (cPE) cells; assay: Protocol 2 maturation of cPE cells into cPB cells (INSULIN mRNA, C-peptide cells)
[4] = system: PDX1+/NKX6.1+ pancreatic progenitor cells; assay: Direct differentiation of PDX1+/NKX6.1+ progenitors to pancreatic beta cells; format: cell-based, human; conditions: alone; does not maintain any progenitor expression
Protocol: Variations on the direct differentiation method disclosed herein (see, e.g., Examples 13 and 17) were also developed that yielded efficient and cost-effective production of functional pancreatic beta cells from pluripotent stem cells. Illustrated schematically in FIG. 24, one method according to the disclosure provides embryonic stem cells (e.g., human embryonic stem cells) that were exposed to retinoic acid and incubated for a sufficient time to see expression of PDX1. During this time, the cells were not exposed to bone morphogenetic protein (BMP), which can lead to precocious endocrine differentiation and, ultimately, the production of non-functional polyhormonal cells. PDX1^+ cells were then exposed to 50 ng/ml epidermal growth factor (EGF) and 50 ng/ml keratinocyte growth factor (KGF or K) in DMEM basal media containing IX GLUTAMAX™ (Invitrogen), IX non-essential amino acids (Invitrogen) and serum-free IX B27supplement (Life Technologies) for an extended period of 24-48 hours under the culture conditions disclosed herein. The extended incubation of pancreatic progenitor PDX1^+ cells in the absence of BMP led to the efficient production of […] pancreatic progenitor cells. The PDX1^+NKX6.1^+cells were then incubated in an optimized combination of growth factors to induce NGN3 expression while maintaining expression of PD1 and NKX6.1. […]

Row | Structure (SMILES) | NEUROG3 (NGN3) and NKX2.2 mRNA transcripts [1] | percentage of C-peptide positive cells, individual supplementation [2] | number of C-peptide positive cells co-expressing PDX1 and NKX6.1 [3] | expression of the INSULIN gene (mRNA) ([3]; day 21, compared to DMSO controls) | endocrine differentiation [4]
1 | O=C1O[C@H]([C@@H](O)CO)C(O)=C1O [Vitamin C] | did not significantly lower | effective in increasing | increased | promoted expression | –
2 | C[C@H](NC(=O)Cc1cc(F)cc(F)c1)C(=O)N[C@@H]1C(=O)N(C)c2ccccc2-c2ccccc21 [gamma secretase inhibitor XX] | – | – | – | – | induces endocrine differentiation efficiently
